Data from patent US20260034091A1, “Compositions and Methods for Treating Metabolic Disorders” (The Regents of the University of California, priority 2022, published 2026).

How the values were obtained:
[1] = system: CDAHFD induced NAFLD progression in mice; assay: Dose dependent effect of TOFA in CDAHFD-induced NAFLD progression in mice; type: in vivo; conditions: 3 weeks
Description: Six-week-old C57BL/6 male mice were fed with a L-Amino Acid Diet With 60 kcal % Fat With 0.1% Methionine and No Added Choline (Research Diets A06071302i) for three weeks before introduction of either vehicle (control) or TOFA via oral gavage for an additional three weeks (FIG. 1a). Mice were gavaged orally twice daily with varying doses of TOFA (0, 25, 50, 125, or 250 mg/kg per day). Upon study termination at six weeks, serum and liver samples were collected. Serum liver damage biomarkers, alanine transaminase (ALT) and aspartate transaminase (AST), were measured by commercially available kits (abcam105134 and abcam 105135, respectively). Hepatic triglycerides were detected from liver samples from a commercially available kit (abcam65336). Liver samples were also scored for degree of hepatic steatosis based on their hematoxylin and eosin (H&E) staining.

[2] = system: chow diet fed mice; assay: Tolerability and toxicity of TOFA in ad libitum fed chow mice; type: in vivo, C57BL/6J male mice; conditions: oral gavage
Description: Eleven-week-old C57BL/6J male mice were fed with PicoLab Rodent Diet (Purina 5053), or chow diet, ad libitum while being treated with either control or 125 mg/kg, BID by oral gavage for three weeks. Mice weights were tracked during the entire time course. Upon study termination, serum and liver samples were collected. Serum biomarkers such as blood urea nitrogen (BUN) and creatinine were assessed by commercially available kits (abcam83362 and Cayman700460, respectively). Additionally, hepatic and serum triglyceride and cholesterol levels were measured by commercially available kits (abcam65336 and abcam65390, respectively).

[3] = system: CDAHFD mouse model of diet-induced NAFLD/NASH; assay: TOFA and Semaglutide single agent and combination in CDAHFD mouse model of NAFLD/NASH; type: in vivo, C57BL/6J male mice
Description: Six-week-old C57BL/6J male mice were fed with a L-amino acid diet with 60 kcal % fat with 0.1% methionine and no added choline (CDAHFD; Research Diets A06071302i) for eight weeks. Mice were randomly assigned to treatment groups of either a vehicle (control), 250 mg/kg of TOFA, 5 nmol/kg of Semaglutide (Novo Nordisk), or a combined dose of 250 mg/kg TOFA plus 5 nmol/kg Semaglutide. TOFA was administered by oral gavage. Semaglutide dosing was up-titrated at beginning of treatment regimen and was delivered via subcutaneous injection at the back shoulder/neck flank. All treatments were delivered QD for an additional four weeks. Mice weights and food intake were monitored during the treatment time course. Upon study termination at 12 weeks, liver and serum samples were collected. Serum liver damage biomarkers, ALT and AST, were measured by commercially available kits (abcam105134 and Cayman 701640, respectively). Hepatic and serum triglyceride levels were measured using a commercially available kit (abcam65336). Total RNA was extracted from liver tissues (Qiagen RNeasy kit 74106), and cDNA was prepared (BioRAD iScript™ Reverse Transcription) according to manufacturer's protocols. Quantitative PCR (qPCR) was performed with fast SYBR Green Mix (ThermoFisher A25742) on the QuantStudio6 System (Applied Biosciences). Additional liver samples were fixed in 4% paraformaldehyde and embedded in paraffin blocks for sectioning and subsequently stained with hematoxylin and eosin (H&E) or Sirius Red with a fast green dye background.

[4] = system: CDAHFD diet-induced NAFLD/NASH with PPARA KO; assay: TOFA in genetic PPARA knockout mice, CDAHFD model of NAFLD/NASH; type: in vivo, PPARA knockout (PPARA KO) male mice
Description: (§1) Six-week-old genetic PPARA knockout (PPARA KO) male mice were fed with a L-amino acid diet with 60 kcal % fat with 0.1% methionine and no added choline (CDAHFD; Research Diets A06071302i) for three weeks or fed with a 60 kcal % fat diet (DIO; Research Diets A12492i) for eight weeks before introduction of either vehicle (control) or 125 mg/kg of TOFA, BID, via oral gavage for an additional two weeks (FIG. 11A and FIG. 11J, respectively). C57BL/6J (WT) mice were fed with the CDAHFD and underwent similar experimental conditions and time course. Mice weights and adverse events were monitored during the treatment time course. Upon study termination, serum and liver samples were collected. Serum liver damage biomarkers, ALT and AST, were measured by commercially available kits (abcam105134 and abcam 105135, respectively). Hepatic and serum triglyceride levels were measured from a commercially available kit (abcam65336). Total RNA was extracted from liver tissues (Qiagen RNeasy kit 74106), and cDNA was prepared (BioRAD iScript™M Reverse Transcription) according to manufacturer's protocols. Quantitative PCR (qPCR) was performed with fast SYBR Green Mix (ThermoFisher A25742) on the QuantStudio6 System (Applied Biosciences). Protein expression levels of liver samples were measured by western blot using antibodies against ACC1/2 (CST3662, 1:1000), VLDLR (AF2258, 1:2000), CPT1A (CST12252, 1:1000), PPARA (abcam126285, 1:1000) and beta-tubulin (CST2146, 1:1000). Membranes were developed using a HRP secondary antibody (1:5000) and visualized using an enhanced chemiluminescent HRP substrate (Thermo34577). Additional liver samples were fixed in 4% paraformaldehyde and embedded in paraffin blocks for sectioning and subsequently stained with hematoxylin and eosin (H&E). Frozen fresh liver tissue was embedded in OCT, sectioned, and subsequently stained with Oil Red O.

[5] = system: 60% HFD diet-induced obesity with PPARA KO; assay: TOFA in genetic PPARA knockout mice, 60% HFD diet-induced obesity (DIO) model; type: in vivo, PPARA knockout (PPARA KO) male mice
Description: as §1

[6] = TOFA 0, 25, 50, 125, or 250 mg/kg per day, oral gavage twice daily
[7] = 125 mg/kg, BID, three weeks, chow diet
[8] = four weeks, TOFA 250 mg/kg oral QD, Semaglutide 5 nmol/kg s.c. QD

CCCCCCCCCCCCCCOc1ccc(C(=O)O)o1 [TOFA, 5-(Tetradecyloxy)-2-furoic acid]
degree of hepatic steatosis (H&E score) [1, 6]: decreased degree of hepatic steatosis correlating to an increased dosage of TOFA | liver triglyceride contents per gram of liver [1, 6]: decreased in a dose dependent manner | serum ALT activity levels [1, 6]: dose dependent decrease | serum AST activity levels [1, 6]: dose dependent decrease | tolerability ([1]; TOFA up to 250 mg/kg per day, oral): well tolerated | tolerability ([2]; 125 mg/kg, BID, three weeks): well tolerated | body weight [2, 7]: no observed weight change | cholesterol levels in serum [2, 7]: No changes | cholesterol levels in the liver [2, 7]: No changes | liver triglyceride levels [2, 7]: observed decrease | serum blood urea nitrogen (BUN) [2, 7]: no drug-induced kidney damage | serum creatinine [2, 7]: no drug-induced kidney damage | serum triglyceride levels [2, 7]: no significant change | oral bioavailability ([2]; mice): orally bioavailable | food intake ([3]; four weeks treatment): not due to changes in food intake | body weight at the end of the treatment time course [3, 8]: smaller degree of weight loss compared to Semaglutide treated mice | inflammation genes (RT-qPCR of liver samples) [3, 8]: specific response of TOFA in addressing inflammation | mRNA levels of genes involved in collagen biosynthesis (RT-qPCR) [3, 8]: strong repressive effectives | serum ALT levels [3, 8]: moderate reductions | serum AST levels [3, 8]: only group to have demonstrated reduction | fibrotic content (Sirius red staining) ([3]; four weeks, liver sections): aforementioned histological trends are noted | steatosis (H&E liver sections) ([3]; four weeks, relative to control): greater reduction in steatosis | liver triglyceride levels ([3]; four weeks, relative to vehicle control): stronger, significant reduction | body weight ([4]; 125 mg/kg BID oral gavage, two weeks): trending decrease in weight | Cpt1a mRNA (RT-qPCR) ([4]; 125 mg/kg BID, two weeks): blunted | hepatic steatosis (H&E) ([4]; 125 mg/kg BID, two weeks): minimal decreases in hepatic steatosis | lipid content by Oil Red O ([4]; 125 mg/kg BID, two weeks): minimal changes in lipid content | liver triglyceride (hepatic lipid levels) ([4]; 125 mg/kg BID, two weeks): no notable decrease | serum ALT levels ([4]; 125 mg/kg BID, two weeks): marginal decreases | serum AST levels ([4]; 125 mg/kg BID, two weeks): marginal decreases | protein expression levels of CPT1A, VLDLR, and ACC1 (western blot) ([4]; relative to vehicle control): not observed | body weight upon treatment start ([5]; 125 mg/kg BID oral gavage): decrease in weight | Vldlr mRNA (RT-qPCR) ([5]; 125 mg/kg BID, two weeks): blunted response | hepatic steatosis (H&E-stained liver sections) ([5]; 125 mg/kg BID, two weeks): minimal changes in hepatic steatosis | serum triglyceride (serum lipid levels) ([5]; 125 mg/kg BID, two weeks): elevated serum lipid levels | adverse events ([5]; 125 mg/kg BID, two-week treatment period): Adverse events were observed
